ChEMBL document CHEMBL6087420, “Synthesis and pharmacodynamic evaluation of 2-aminoindole derivatives against influenza A virus in vitro/vivo” (Eur J Med Chem, 2025)
Active and inactive are the calls of the source. The calls are words filed in the database; no cut-off is given here.

Columns and labels:
[1] = test system: Influenza A virus; experiment: Anti-influenza activity against influenza A virus H1NI (A/Virginia/ATCC2/2009) infected in dog MDCK cells incubated for 72 hrs by MTT assay; assay type: functional, organism-based; details: Influenza A virus, H1NI (A/Virginia/ATCC2/2009), MDCK, 72 h
[2] = Selectivity index, ratio of CC50 for dog MDCK cells to EC50 for antiviral activity against Influenza A virus […] H3N2 (A/California/2014) infected in MDCK cells; assay type: toxicity, cell-based; details: read-out: Selectivity Index
[3] = Selectivity index, ratio of CC50 for dog MDCK cells to EC50 for antiviral activity against Influenza A virus H1NI (A/Virginia/ATCC2/2009) infected in MDCK cells; assay type: toxicity, cell-based; details: read-out: Selectivity Index
[4] = test system: Influenza A virus; experiment: Antiviral activity against influenza A virus H1NI (A/Weiss/43) infected in human A549 cells assessed as reduction in IAV-NP mRNA by qRT-PCR assay; assay type: functional, organism-based
[5] = test system: Influenza A virus; experiment: Antiviral activity against influenza A virus H1NI (A/Weiss/43) virus infected in dog MDCK cells assessed as viral inhibition treated after 4 hrs of viral infection measured at 72 hrs incubation by MTT assay; assay type: functional
[6] = test system: Influenza A virus; experiment: Antiviral activity against influenza A virus infected in A549 cells assessed as decrease in IAV-M2 mRNA level measured after 1 to 3 days of viral infection; assay type: functional, organism-based; details: time 1-3 day
[7] = test system: Influenza A virus; experiment: Inhibition of influenza A virus infection induced apoptosis in MDCK cells infected with influenza virus assessed as viable cells at 25 uM incubated for 36 hrs by AnnexinV-FITC/PI staining based flow cytometry (reference value: 66.9%); assay type: functional
[8] = test system: Influenza A virus; experiment: Inhibition of influenza A virus infection induced apoptosis in MDCK cells infected with influenza virus assessed as early apoptotic cells at 25 uM incubated for 36 hrs by AnnexinV-FITC/PI staining based flow cytometry (reference value: 18.2%); assay type: functional; design: scale not given: the % may be the effect or the level left
[9] = test system: Influenza A virus; experiment: Inhibition of influenza A virus infection induced apoptosis in MDCK cells infected with influenza virus assessed as early apoptotic cells at 50 uM incubated for 36 hrs by AnnexinV-FITC/PI staining based flow cytometry (reference value: 18.2%); assay type: functional; design: scale not given: the % may be the effect or the level left
[10] = test system: Influenza A virus; experiment: Inhibition of influenza A virus infection induced apoptosis in MDCK cells infected with influenza virus assessed as late apoptotic cells at 50 uM incubated for 36 hrs by AnnexinV-FITC/PI staining based flow cytometry (reference value: 13.2%); assay type: functional; design: scale not given: the % may be the effect or the level left
[11] = test system: Influenza A virus; experiment: Inhibition of influenza A virus infection induced apoptosis in MDCK cells infected with influenza virus assessed as necrotic cells at 100 uM incubated for 36 hrs by AnnexinV-FITC/PI staining based flow cytometry (reference value: 1.79%); assay type: functional; design: scale not given: the % may be the effect or the level left
[12] = test system: Influenza A virus; experiment: Inhibition of influenza A virus infection induced apoptosis in MDCK cells assessed as viable cells at 100 uM incubated for 36 hrs by AnnexinV-FITC/PI staining based flow cytometry (reference value: 97.6%); assay type: functional
[13] = test system: Influenza A virus; experiment: Inhibition of influenza A virus infection induced apoptosis in MDCK cells assessed as necrotic cells at 100 uM incubated for 36 hrs by AnnexinV-FITC/PI staining based flow cytometry (reference value: 0.74%); assay type: functional; design: scale not given: the % may be the effect or the level left
[14] = test system: Influenza A virus; experiment: In vivo antiviral activity against influenza A virus infected in BALB/c mouse assessed as reduction in weight loss at 25 to 100 mg/kg; assay type: functional, organism-based; details: dose 25-100 mg/kg
[15] = test system: Influenza A virus; experiment: In vivo antiviral activity against influenza A virus infected in BALB/c mouse assessed as reduction in lung index at 25 to 100 mg/kg; assay type: functional, organism-based; details: dose 25-100 mg/kg
[16] = test system: Influenza A virus; experiment: Antiviral activity against influenza A virus infected in human A549 cells assessed as inhibition of TLR3 expression by qRT-PCR analysis; assay type: functional, organism-based
[17] = test system: Influenza A virus; experiment: Antiviral activity against influenza A virus infected in human A549 cells assessed as inhibition of MAVS expression by qRT-PCR analysis; assay type: functional, organism-based
[18] = test system: Influenza A virus; experiment: Antiviral activity against influenza A virus infected in human A549 cells assessed as inhibition of IRF3 expression by qRT-PCR analysis; assay type: functional, organism-based
[19] = test system: Influenza A virus; experiment: Antiviral activity against influenza A virus infected in human A549 cells assessed as inhibition of IL-13 expression by qRT-PCR analysis; assay type: functional, organism-based
[20] = test system: Influenza A virus; experiment: Antiviral activity against influenza virus infected in A549 cells assessed as inhibition in inflammatory cell invasion; assay type: functional, organism-based
[21] = test system: Influenza A virus; experiment: Antiviral activity against influenza A virus H1NI (A/Weiss/43) infected in compound pretreated MDCK cells assessed as reduction in viral absorption; assay type: functional, organism-based
[22] = test system: Influenza A virus; experiment: Antiviral activity against influenza A virus infected in A549 cells assessed as decrease in IAV-NP expression pretreated for 48 hrs followed by infected with virus by Western blotting analysis; assay type: functional, organism-based; details: dose 25-100 µM
[23] = test system: MDCK; experiment: Inhibition of influenza virus infection induced mitochondrial membrane potential loss in MDCK cells infected with influenza virus assessed as decrease in green fluorescence at 25 to 100 uM by JC-1 probe based confocal microscopy; assay type: functional, cell-based; details: Influenza A virus, dose 25-100 µM
[24] = test system: Influenza A virus; experiment: Inhibition of influenza A virus infection induced apoptosis in MDCK cells infected with influenza virus assessed as decrease in cleaved caspase 9 incubated for 36 hrs by Western blot analysis; assay type: functional, organism-based
[25] = test system: Influenza A virus; experiment: In vivo antiviral activity against influenza A virus infected in BALB/c mouse assessed as decrease in symptoms at 25 to 100 mg/kg; assay type: functional, organism-based; details: dose 25-100 mg/kg
[26] = test system: Influenza A virus; experiment: In vivo antiviral activity against influenza A virus infected in BALB/c mouse assessed as reduction in IAV-M2 mRNA level in lung at 25 to 100 mg/kg measured after 6 dpi; assay type: functional, organism-based; details: dose 25-100 mg/kg
[27] = test system: Influenza A virus; experiment: In vivo antiviral activity against influenza A virus infected in BALB/c mouse assessed as reduction in RIG-I mRNA level in lung at 25 to 100 mg/kg measured after 6 dpi; assay type: functional, organism-based; details: dose 25-100 mg/kg
[28] = test system: Influenza A virus; experiment: In vivo antiviral activity against influenza A virus infected in BALB/c mouse assessed as reduction in NLRP-3 mRNA level in lung at 25 to 100 mg/kg measured after 6 dpi; assay type: functional, organism-based; details: dose 25-100 mg/kg
[29] = test system: Influenza A virus; experiment: In vivo antiviral activity against influenza A virus infected in BALB/c mouse assessed as reduction in IFN-gamma mRNA level in lung at 25 to 100 mg/kg measured after 6 dpi; assay type: functional, organism-based; details: dose 25-100 mg/kg
[30] = test system: Influenza A virus; experiment: In vivo antiviral activity against influenza A virus infected in BALB/c mouse assessed as reduction in TNF-alpha mRNA level in lung at 25 to 100 mg/kg measured after 6 dpi; assay type: functional, organism-based; details: dose 25-100 mg/kg
[31] = test system: Influenza A virus; experiment: In vivo antiviral activity against influenza A virus infected in BALB/c mouse assessed as reduction in iNOS mRNA level in lung at 25 to 100 mg/kg measured after 6 dpi; assay type: functional, organism-based; details: dose 25-100 mg/kg
[32] = test system: Influenza A virus; experiment: In vivo antiviral activity against influenza A virus infected in BALB/c mouse assessed as reduction in Caspase-1 mRNA level in lung at 25 to 100 mg/kg measured after 6 dpi; assay type: functional, organism-based; details: dose 25-100 mg/kg
[33] = Toxicity in healthy BALB/c mouse assessed as pathological change in heart at 25 to 100 mg/kg administered through gavage for 6 days; assay type: organism-based; details: in vivo, po, 144 h, dose 25-100 mg/kg, time 6 day
[34] = Toxicity in healthy BALB/c mouse assessed as pathological change in kidney at 25 to 100 mg/kg administered through gavage for 6 days; assay type: organism-based; details: in vivo, po, 144 h, dose 25-100 mg/kg, time 6 day
[35] = Toxicity in healthy BALB/c mouse assessed as change in blood indicators at 25 to 100 mg/kg administered through gavage for 6 days; assay type: organism-based; details: in vivo, po, 144 h, dose 25-100 mg/kg, time 6 day

For COc1ccc2c(c1)c(-c1ccccc1)c(NS(C)(=O)=O)n2S(=O)(=O)c1ccc(C)cc1, which EC50 [1] is on record?
The EC50 was 12.9 µM.

What about the selectivity ratio [2] of the same compound?
The selectivity ratio was 36.5.

What about the selectivity ratio [3] of the same compound?
The selectivity ratio was 51.9.

What about the Activity [4] of the same compound?
The Activity was “Active”.

What about the “inhibition (INH)” value [5] of the same compound?
Its value is 85.3%.

And the Activity [6]?
Its Activity is “Active”.

And the Activity [7]?
Its Activity is 71.9%.

What about the Activity [8] of the same compound?
Its Activity is 17.6%.

And the Activity [9]?
The Activity was 9.21%.

What about the Activity [10] of the same compound?
Its Activity is 4.07%.

And the Activity [11]?
Its Activity is 1.74%.

And the Activity [12]?
Its Activity is 96.7%.

What about the Activity [13] of the same compound?
Its Activity is 1.78%.

What about the Activity [14] of the same compound?
Its Activity is “inactive”.

And the Activity [15]?
Its Activity is “Active”.

What about the Activity [16] of the same compound?
Its Activity is “Active”.

And the Activity [17]?
Its Activity is “Active”.

And the Activity [18]?
Its Activity is “Active”.

And the Activity [19]?
The Activity was “Active”.

And the Activity [20]?
The Activity was “Active”.

And the Activity [21]?
Its Activity is “inactive”.

And the Activity [22]?
The Activity was “Dose-dependent-effect”.

And the inhibition [23]?
The inhibition was “Active”.

And the Activity [24]?
Its Activity is “Dose-dependent-effect”.

What about the Activity [25] of the same compound?
Its Activity is “Active; Alleviate Following Symptoms - Symptoms Of Severe Malaise, Respiratory Distress, Asthma, Messy Coat, Hunched Back, And Loss Of Appetite To Certain Extent”.

And the Activity [26]?
The Activity was “Active”.

And the Activity [27]?
Its Activity is “Active”.

What about the Activity [28] of the same compound?
The Activity was “Active”.

And the Activity [29]?
Its Activity is “Active”.

What about the Activity [30] of the same compound?
The Activity was “Active”.

What about the Activity [31] of the same compound?
The Activity was “Active”.

What about the Activity [32] of the same compound?
Its Activity is “Active”.

And the Activity [33]?
Its Activity is “Non-toxic”.

What about the Activity [34] of the same compound?
The Activity was “Non-toxic”.

What about the Activity [35] of the same compound?
The Activity was “Non-toxic”.
